This is an account of results in PMC12000251, “Evaluation of the Anti-Inflammatory Effects of Novel Fatty Acid-Binding Protein 4 Inhibitors in Microglia” (Journal of Neuroimmune Pharmacology, 2025).

Molecules are shown by their SMILES. Read-outs that look alike come from different tables or passages of the source.

For orientation: Ki means the dissociation constant of the complex between target and ligand, obtained from inhibition or displacement. For orientation: LogP means the decadic logarithm of the partition coefficient of the neutral form, usually between octanol and water.

Data set [1] can be described thus: 1D 1H NMR aqueous solubility in phosphate buffer. Particulars: kinetic from dmso stock, phosphate buffer pH 7.4 in D2O, 0.1% d6-DMSO, 25 °C, range 3.125–100 µM, read-out: Soluble in phosphate buffer up to (concentration). It counts as physicochemical. The protocol: 1D ^1H NMR was employed to determine the solubility limits of the four MFP compounds and BMS309403 in phosphate buffer. This method has been commonly used to determine compound solubility in the drug discovery setting (Devine et al. [2014]; Lee et al. [2015b]; Lin et al. [2009]). A 100 mM of stock solution of each compound was first prepared in d6-DMSO. These stock solutions were then added into phosphate buffer (50 mM sodium phosphate, 25 mM NaCl, 100 µM of DSS, pH 7.4 in D2O) to achieve a final d6-DMSO concentration of 0.1% (v/v) which is equivalent to the DMSO concentration present in BV-2 cell culture experiments. All samples were inspected to note whether visible precipitates were formed. ^1H NMR spectra for all of the samples were acquired using Bruker Avance III 600 MHz spectrometer at 25 °C. Experimental data were acquired using a relaxation delay of 5 s with 128 scans, and water suppression using an excitation sculpting pulse scheme. Mestrelab Research 13.0 software was used to integrate the proton resonances of the compounds. A well-resolved peak (i.e. no overlaps with any other peaks) in the spectrum of each compound was chosen for integration, relative to the DSS peak (at 0 ppm). […] In addition, the chemical shifts of the resonances in the 1D ^1H NMR spectra were monitored.

The target in a further data set is FABP4. Also on record: method as in Floresta et al. [2017]. Particulars: ref Floresta et al. [2017]; cited from earlier work.
Details of data set [2]: method as in PubChem [2021]. Particulars: ref PubChem [2021]; cited from earlier work.
In data set [3] the test system is BV-2 cells. Also noted: method as in Kagawa et al. [2023]. Particulars: 50 µM; ref Kagawa et al. [2023]; cited from earlier work.
Data set [4] deals with LPS-activated BV-2 cells. Also noted: method as in Kagawa et al. [2023]. Particulars: 50 µM; ref Kagawa et al. [2023]; cited from earlier work.
The test system of data set [5] is LPS-activated BV-2 cells. Also noted: method as in Duffy et al. [2017]. Particulars: 50 µM; ref Duffy et al. [2017]; cited from earlier work.
Data set [6] relates to LPS-activated BV-2 cells. Also noted: method as in Kagawa et al. [2023]. Particulars: five-fold higher concentration than 10 µM; ref Kagawa et al. [2023]; cited from earlier work.
The target in data set [7] is T1, Recombinantly-expressed human FABP4 (Homo sapiens, UniProt P15090).
T1 construct: made in house
T1 sequence (P15090 whole entry): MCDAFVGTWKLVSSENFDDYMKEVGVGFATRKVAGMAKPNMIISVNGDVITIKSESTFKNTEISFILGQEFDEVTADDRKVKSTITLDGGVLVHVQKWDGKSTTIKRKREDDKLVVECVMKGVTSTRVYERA
Kind of data set: Isothermal titration calorimetry (ITC) binding affinity to FABP4. Particulars: one-site binding model. The protocol:
A prior fragment screen identified a series of bi-aryl sulfonamides that bound to FABP4. Analogues of this chemical sulfonamide scaffold were then purchased, which led to the identification of the compounds used in this study (MFP-0011462, MFP-0012314, MFP-0012318, and MFP-0012328). Their predicted LogP and tPSA values were calculated in Vortex v2020.1.117658-s (Dotmatics, Boston, MA). The binding affinity of these four compounds was characterised by isothermal titration calorimetry (ITC). ITC was carried out using an iTC200 microcalorimeter (MicroCal, United Kingdom) with a coin shaped sample cell (201.4 μL) with stirring at 1000 rpm at 25°C. Titrations were performed in an ITC buffer (50 mM sodium phosphate, 50 mM NaCl, pH 7.4 with 2% DMSO). Compounds were diluted from concentrated stocks in ITC buffer and loaded into the titration syringe at a concentration of 1 mM, with a final DMSO concentration of 2% (v/v). Recombinantly-expressed human FABP4 was prepared as described previously (Lee et al. [2015a]) in an identical buffer at a protein concentration of 80 μM and placed in the sample cell. A thermal equilibration step at 25°C was followed by an initial 180 s delay step and subsequently an initial 0.2 μL injection. 16 serial injections of the 1 mM compound solution (2 μL each) were made at intervals of 220 s with continuous stirring of the solution in the sample cell. The iTC200 control software was used to operate and acquire raw data as power (microcalories/sec) vs time (min). The data were processed using the Origin 7.0 software (MicroCal) and the binding affinity (KD) was calculated by fitting the data to a one-site binding model.
For orientation: ITC needs no label: the signal is the heat of the interaction.

Data set [8] relates to BV-2 cells. Kind of data set: MTT assay of BV-2 cell viability. The data set is classed as cell-based, mouse. Particulars: 24 h; for fold reduction in cell viability: 75 µM and 100 µM of MFP-0012328, 100 µM of the other MFP compounds, range over the compounds; for BV-2 cell viability relative to vehicle control: 2–50 µM, MTT. The protocol:
(§1) BV-2 cells were cultured in DMEM/F-12 media supplemented with 10% (v/v) FBS and 1% (v/v) penicillin/streptomycin, and kept at 37 °C in a humidified incubator ([…], 5% CO2) for all studies. Cells with 80% confluency were used for experiments. At 24 h post-seeding, BV-2 cells were treated with either of the MFP compounds (at concentrations detailed below) or vehicle (0.1% (v/v) DMSO) and 1 µg/mL LPS for a period of 24 h. In some experiments (detailed in Results), BV-2 cells were exposed to MFP compounds for 2 h before a 24 h exposure to LPS and MFP compounds, and in some studies, in the presence of FABP4 siRNA using a 24 h treatment that we have previously employed (Low et al. [2021]). In brief, BV-2 cells were washed once 4 h post-seeding with blank DMEM/F-12 media. siRNA complexes (containing FABP4 siRNA, target sequence 5’-[…]-3’ or AllStar Negative Control siRNA, target sequence proprietary) were added dropwise onto the cells. siRNA complexes were prepared by mixing siRNA and HiPerfect transfection reagent together in FBS-free DMEM/F12 media and incubating for 15 min to allow the siRNA complexes to form. The cells were incubated with the siRNA complex for 5 min, after which, DMEM/F12 media containing FBS was added into each well to dilute the siRNA complexes to 5 nM.
To determine the most appropriate and tolerable concentration of MFP compounds in BV-2 cells, an MTT assay was performed. Following treatment with increasing concentrations of MFP compounds for 24 h, BV-2 cells were rinsed once with PBS prior to being incubated with 0.45 mg/mL MTT reagent for 4 h in a 37 °C, 5% CO2 incubator. After that, the MTT reagent was removed and 150 µL of DMSO was added into all wells for 30 min. The plate was then immediately read on a Perkin-Elmer Enspire fluorescence plate reader (Boston, MA) at 540 nm. Background subtraction was performed before the percentage cell viability was calculated and expressed as a ratio of mean absorbance of MFP-treated cells over mean absorbance of vehicle-treated cells.

The test system of data set [9] is LPS-activated BV-2 cells. Kind of data set: Intracellular ROS (DCF-DA) in LPS-activated BV-2 cells. Particulars: 2 h pre-treatment then co-treatment with 1 µg/mL LPS 24 h, vs LPS-only. The data set is classed as cell-based, mouse. On the procedure:
as §1, with “At 24 h post-seeding, BV-2 cells were treated with either of the MFP compounds (at concentrations detailed below) or vehicle (0.1% (v/v) DMSO) and 1 µg/mL LPS for a period of 24 h.” left out
Intracellular ROS in BV-2 cells, following treatment with MFP compounds and LPS, was detected using the widely-used membrane permeable probe, DCF-DA. Post treatment, BV-2 cells were rinsed once with warm HBSS prior to being incubated with 40 µM of DCF-DA for 30 min at 37°C, 5% CO2. The wells were then rinsed again with HBSS before being read on a Perkin-Elmer Enspire plate reader (λex: 488 nm, λem: 535 nm) as we have reported previously (Kagawa et al. [2023]).

The test system of data set [10] is LPS-activated BV-2 cells. Kind of data set: Extracellular nitrite (Griess assay) from LPS-activated BV-2 cells. The data set is classed as cell-based, mouse. Particulars: 50 µM, 1 µg/mL LPS 24 h. The protocol: BV-2 cells were cultured in DMEM/F-12 media supplemented with 10% (v/v) FBS and 1% (v/v) penicillin/streptomycin, and kept at 37 °C in a humidified incubator ([…], 5% CO2) for all studies. Cells with 80% confluency were used for experiments. At 24 h post-seeding, BV-2 cells were treated with either of the MFP compounds (at concentrations detailed below) or vehicle (0.1% (v/v) DMSO) and 1 µg/mL LPS for a period of 24 h. In some experiments (detailed in Results), BV-2 cells were exposed to MFP compounds for 2 h before a 24 h exposure to LPS and MFP compounds, and in some studies, in the presence of FABP4 siRNA using a 24 h treatment that we have previously employed (Low et al. [2021]). […]
For measurement of extracellular nitrite concentrations, the Griess assay was performed as per the manufacturer’s protocol (Molecular Probes, Eugene, OR) with minor changes. […] The absorbance of the media samples was measured on a Perkin-Elmer Enspire plate reader at 548 nm, with nitrite concentrations in media samples obtained by back calculating sample absorbance values back to a standard curve prepared through serial dilution of NaNO2 prepared in media.
A general note: The Griess reaction detects nitrite, a stable product of nitric oxide.

The mark [11] stands for this setting: read-out: KD (ITC titration of FABP4, Figure S1).

`CCc1c(-c2ccccc2)c(-c2ccccc2)nn1-c1ccccc1-c1cccc(OCC(=O)O)c1` [BMS309403, 2-((2'-(5-Ethyl-3,4-diphenyl-1H-pyrazol-1-yl)-[1,1'-biphenyl]-3-yl)oxy)acetic acid]: in data set [1], the solubility is at least 100 µM. Besides, on FABP4, the Ki was below 2 nM. Also, the LogP in [2] is listed as 7.2. For the same molecule, in the data set with BV-2 cells [3], the “toxicity to BV-2 cells” value is on record as “does not exhibit toxicity”. The “reduction in ROS levels” value in the data set on LPS-activated BV-2 cells [4] is given as 36.0%. The “reduction in nitrite production” value with LPS-activated BV-2 cells [5] is reported as 26.8%. The “reduction in LPS-mediated TNF-α release” value in the data set on LPS-activated BV-2 cells [6] was 29.0%.
For `COc1cc(S(=O)(=O)Nc2cccc(C(=O)O)c2)ccc1Cl` [MFP-0011462], in [7] (setting [11]), the Kd came out at 694 nM. Also, the “fold reduction in cell viability” value in the data set on BV-2 cells [8] is 0.17–0.27 fold. Besides, the “BV-2 cell viability relative to vehicle control” value with BV-2 cells [8] is reported as “no significant differences”. For the same molecule, the “% reduction in intracellular ROS production (mean ± SEM)” value (“% reduction … (mean ± SEM)” below) in the data set on LPS-activated BV-2 cells [9] (10 µM) is listed as 49 ± 0.04 (****p < 0.0001) %; in the data set on LPS-activated BV-2 cells [9] (50 µM), 46 ± 0.08 (***p < 0.001) %. Moreover, the “attenuation of LPS-mediated release of nitrite” value in the data set with LPS-activated BV-2 cells [10] is on record as 12.2%.
Consider `COc1ccc(S(=O)(=O)Nc2cccc(C(=O)O)c2)cc1Cl` [MFP-0012314], for which the Kd in [7] (setting [11]) stood at 885 nM. Further, in the data set on BV-2 cells [8], the “fold reduction in cell viability” value is reported as 0.17–0.27 fold and the “BV-2 cell viability relative to vehicle control” value was “no significant differences”. In the data set on LPS-activated BV-2 cells [9] (10 µM), the “% reduction … (mean ± SEM)” value is 40 ± 0.09 (**p < 0.01) %. In addition, the “% reduction … (mean ± SEM)” value in the data set on LPS-activated BV-2 cells [9] (50 µM) is listed as 42 ± 0.07 (***p < 0.001) %.
For the molecule `CNC(=O)c1ccc(S(=O)(=O)Nc2cccc(C(=O)O)c2)cc1` [MFP-0012318], the Kd in data set [7] (25°C, pH 7.4, 2% DMSO, read-out: KD against FABP4) was above 100000 nM. Moreover, in the data set with BV-2 cells [8], the “fold reduction in cell viability” value is 0.17–0.27 fold and the “BV-2 cell viability relative to vehicle control” value is “no significant differences”. Moreover, the “% reduction … (mean ± SEM)” value with LPS-activated BV-2 cells [9] (50 µM) was 54 ± 0.09 (****p < 0.0001) %.
